Measured values from patent US9643970B2, “Substituted imidazo [1,5-a]pyrazines as PDE9 inhibitors” (H Lundbeck A/S, priority 2012, dated 2017).
Read-outs that look alike come from different tables or passages of the source.

Target: PDE9 (Homo sapiens, UniProt O76083)
Assay: PDE9 inhibition assay
Type: biochemical
Experimental: Reactions are initiated by addition of the cyclic nucleotide substrate, and reactions are allowed to proceed for one hr at room temperature before being terminated through mixing with 15 uL 8 mg/mL yttrium silicate SPA beads (Amersham). […] IC50 values were calculated by non linear regression using XLfit (IDBS).

[1] = SPA assay, 10 nM 3H-cAMP, 1 hour incubation, read-out: IC50

Sequence of PDE9 (O76083 whole entry): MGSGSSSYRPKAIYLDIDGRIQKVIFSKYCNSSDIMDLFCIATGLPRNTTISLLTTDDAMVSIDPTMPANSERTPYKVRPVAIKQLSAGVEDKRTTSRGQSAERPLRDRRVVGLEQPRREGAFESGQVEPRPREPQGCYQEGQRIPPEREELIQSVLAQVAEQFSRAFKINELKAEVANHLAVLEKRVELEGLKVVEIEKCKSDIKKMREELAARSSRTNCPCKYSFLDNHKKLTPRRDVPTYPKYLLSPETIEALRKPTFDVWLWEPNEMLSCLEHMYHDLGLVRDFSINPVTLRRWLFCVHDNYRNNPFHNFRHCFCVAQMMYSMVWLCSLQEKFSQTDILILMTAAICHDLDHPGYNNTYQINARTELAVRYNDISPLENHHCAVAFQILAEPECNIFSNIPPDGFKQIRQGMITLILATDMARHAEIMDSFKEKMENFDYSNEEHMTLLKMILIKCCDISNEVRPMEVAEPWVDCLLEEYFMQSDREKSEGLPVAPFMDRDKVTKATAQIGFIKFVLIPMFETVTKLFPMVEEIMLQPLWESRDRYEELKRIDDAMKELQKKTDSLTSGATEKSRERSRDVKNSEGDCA

IC50 [1] [nM]	IC50 [nM]	SMILES
25	–	CC(c1cn2c(-c3ccccc3)ncc2c(=O)[nH]1)N1CC(Oc2cccc(F)c2)C1 (stereo not shown) [Compound 24, 6-[1-[3-(3-fluorophenoxy)azetidin-1-yl]ethyl]-3-phenyl-7h-imidazo[1,5-a]pyrazin-8-one]
–	28	CC(c1cn2c(-c3ccccc3)ncc2c(=O)[nH]1)N1CC(Oc2ccccc2)C1 (stereo not shown) [Compound 25, 6-[1-(3-phenoxyazetidin-1-yl)ethyl]-3-phenyl-7h-imidazo[1,5-a]pyrazin-8-one]
19	–	CC(c1cn2c(-c3ccccc3)ncc2c(=O)[nH]1)N1CC(Oc2ccc(F)cc2)C1 (stereo not shown) [Compound 26, 6-[1-[3-(4-fluorophenoxy)azetidin-1-yl]ethyl]-3-phenyl-7h-imidazo[1,5-a]pyrazin-8-one]
38	–	CC(c1cn2c(-c3ccccc3)ncc2c(=O)[nH]1)N1CC(Oc2cccc(F)n2)C1 (stereo not shown) [Compound 27, 6-[1-[3-[(6-fluoro-2-pyridyl)oxy]azetidin-1-yl]ethyl]-3-phenyl-7h-imidazo[1,5-a]pyrazin-8-one]
53	–	CC(c1cn2c(-c3ccccc3)ncc2c(=O)[nH]1)N1CC(c2ccc(F)cc2)C1 (stereo not shown) [Compound 28, 6-[1-[3-(4-fluorophenyl)azetidin-1-yl]ethyl]-3-phenyl-7h-imidazo[1,5-a]pyrazin-8-one]
–	20	Cc1ccnc(C2CN(C(C)c3cn4c(-c5ccccc5)ncc4c(=O)[nH]3)C2)c1 (stereo not shown) [Compound 29, 6-[1-[3-(4-methyl-2-pyridyl)azetidin-1-yl]ethyl]-3-phenyl-7h-imidazo[1,5-a]pyrazin-8-one]
–	16	CCc1ccc(C2CN(C(C)c3cn4c(-c5ccccc5)ncc4c(=O)[nH]3)C2)cc1 (stereo not shown) [Compound 30, 6-[1-[3-(4-ethylphenyl)azetidin-1-yl]ethyl]-3-phenyl-7h-imidazo[1,5-a]pyrazin-8-one]
33	–	CC1CN(Cc2ccccc2)CC1c1cn2c(-c3ccccc3)ncc2c(=O)[nH]1 (stereo not shown) [Compound 31, 6-(1-benzyl-4-methyl-pyrrolidin-3-yl)-3-phenyl-7h-imidazo[1,5-a]pyrazin-8-one]
–	72	CC(c1cn2c(-c3ccccc3)ncc2c(=O)[nH]1)N1CC(Oc2ccccc2F)C1 (stereo not shown) [Compound 32, 6-[1-[3-(2-fluorophenoxy)azetidin-1-yl]ethyl]-3-phenyl-7h-imidazo[1,5-a]pyrazin-8-one]
–	18	O=c1[nH]c(CN2CC(Oc3ccccc3F)C2)cn2c(-c3ccccc3)ncc12 [Compound 33, 6-[[3-(2-fluorophenoxy)azetidin-1-yl]methyl]-3-phenyl-7h-imidazo[1,5-a]pyrazin-8-one]
66	–	COc1ccc(C2CN(C(C)c3cn4c(-c5ccccc5)ncc4c(=O)[nH]3)C2)cc1 (stereo not shown) [Compound 34, 6-[1-[3-(4-methoxyphenyl)azetidin-1-yl]ethyl]-3-phenyl-7h-imidazo[1,5-a]pyrazin-8-one]
49	–	N#Cc1ccc(C2CN(Cc3cn4c(-c5ccccc5)ncc4c(=O)[nH]3)C2)cc1 [Compound 35, 4-[1-[(8-oxo-3-phenyl-7h-imidazo[1,5-a]pyrazin-6-yl)methyl]azetidin-3-yl]benzonitrile]
79	–	CC(c1cn2c(-c3ccccc3)ncc2c(=O)[nH]1)N1CC(c2ncccn2)C1 (stereo not shown) [Compound 36, 3-phenyl-6-[1-(3-pyrimidin-2-ylazetidin-1-yl)ethyl]-7h-imidazo[1,5-a]pyrazin-8-one]
29	–	O=c1[nH]c(CN2CC(c3ccccn3)C2)cn2c(-c3ccccc3)ncc12 [Compound 37, 3-phenyl-6-[[3-(2-pyridyl)azetidin-1-yl]methyl]-7h-imidazo[1,5-a]pyrazin-8-one]
23	–	CC(c1cn2c(-c3ccccc3)ncc2c(=O)[nH]1)N1CC(c2ccc(C#N)cc2)C1 (stereo not shown) [Compound 38, 4-[1-[1-(8-oxo-3-phenyl-7h-imidazo[1,5-a]pyrazin-6-yl)ethyl]azetidin-3-yl]benzonitrile]
22	–	O=c1[nH]c(CN2CC(Oc3ncccn3)C2)cn2c(C3CCCC3)ncc12 [Compound 39, 3-cyclopentyl-6-[(3-pyrimidin-2-yloxyazetidin-1-yl)methyl]-7h-imidazo[1,5-a]pyrazin-8-one]
5	–	CC(c1cn2c(C3CCCC3)ncc2c(=O)[nH]1)N1CC(c2ccc(F)cc2)C1 (stereo not shown) [Compound 40, 3-cyclopentyl-6-[1-[3-(4-fluorophenyl)azetidin-1-yl]ethyl]-7h-imidazo[1,5-a]pyrazin-8-one]

More lines, now with the values behind:

SMILES	IC50 [1] [nM]	IC50 [nM]
COC1CN(C(C)c2cn3c(-c4ccc(F)cc4)ncc3c(=O)[nH]2)C1 (stereo not shown) [Compound 1, 3-(4-fluorophenyl)-6-[1-(3-methoxyazetidin-1-yl)ethyl]-7h-imidazo[1,5-a]pyrazin-8-one]	73	–
CC(NCC1CCCCC1)c1cn2c(-c3ccccc3)ncc2c(=O)[nH]1 (stereo not shown) [Compound 2, 6-[1-(cyclohexylmethylamino)ethyl]-3-phenyl-7h-imidazo[1,5-a]pyrazin-8-one]	187	–
COC1CN(Cc2cn3c(-c4ccccc4)ncc3c(=O)[nH]2)C1 [Compound 3, 6-[(3-methoxyazetidin-1-yl)methyl]-3-phenyl-7h-imidazo[1,5-a]pyrazin-8-one]	90	–
O=c1[nH]c(CN2CC(Oc3cnccn3)C2)cn2c(-c3ccccc3)ncc12 [Compound 4, 3-phenyl-6-[(3-pyrazin-2-yloxyazetidin-1-yl)methyl]-7h-imidazo[1,5-a]pyrazin-8-one]	–	32
O=c1[nH]c(CN2CC(Oc3ncccn3)C2)cn2c(-c3ccccc3)ncc12 [Compound 5, 3-phenyl-6-[(3-pyrimidin-2-yloxyazetidin-1-yl)methyl]-7h-imidazo[1,5-a]pyrazin-8-one]	–	30
O=c1[nH]c(CN2CC(Oc3cccc(F)n3)C2)cn2c(-c3ccccc3)ncc12 [Compound 6, 6-[[3-[(6-fluoro-2-pyridyl)oxy]azetidin-1-yl]methyl]-3-phenyl-7h-imidazo[1,5-a]pyrazin-8-one]	31	–
CC(c1cn2c(-c3ccccc3)ncc2c(=O)[nH]1)N1CC(Oc2ncccn2)C1 (stereo not shown) [Compound 7, 3-phenyl-6-[1-(3-pyrimidin-2-yloxyazetidin-1-yl)ethyl]-7h-imidazo[1,5-a]pyrazin-8-one]	14	–
O=c1[nH]c(CN2CC(c3ccccc3)C2)cn2c(-c3ccccc3)ncc12 [Compound 8, 3-phenyl-6-[(3-phenylazetidin-1-yl)methyl]-7h-imidazo[1,5-a]pyrazin-8-one]	78	–
CN(Cc1ccccc1)Cc1cn2c(-c3ccccc3)ncc2c(=O)[nH]1 [Compound 9, 6-[[benzyl(methyl)amino]methyl]-3-phenyl-7h-imidazo[1,5-a]pyrazin-8-one]	156	–
COC(=O)C1CN(Cc2ccccc2)CC1c1cn2c(-c3ccccc3)ncc2c(=O)[nH]1 (stereo not shown) [Compound 10, methyl 1-benzyl-4-(8-oxo-3-phenyl-7h-imidazo[1,5-a]pyrazin-6-yl)pyrrolidine-3-carboxylate]	43	–
CCc1ccc(C2CN(Cc3cn4c(-c5ccccc5)ncc4c(=O)[nH]3)C2)cc1 [Compound 11, 6-[[3-(4-ethylphenyl)azetidin-1-yl]methyl]-3-phenyl-7h-imidazo[1,5-a]pyrazin-8-one]	–	127
CCC(c1cn2c(-c3ccccc3)ncc2c(=O)[nH]1)N1CC(c2ccc(F)cc2)C1 (stereo not shown) [Compound 12, 6-[1-[3-(4-fluorophenyl)azetidin-1-yl]propyl]-3-phenyl-7h-imidazo[1,5-a]pyrazin-8-one]	19	–
O=c1[nH]c(CN2CC(Oc3cnc4ccccc4n3)C2)cn2c(-c3ccccc3)ncc12 [Compound 13, 3-phenyl-6-[(3-quinoxalin-2-yloxyazetidin-1-yl)methyl]-7h-imidazo[1,5-a]pyrazin-8-one]	7	–
Cc1cc(C)nc(OC2CN(Cc3cn4c(-c5ccccc5)ncc4c(=O)[nH]3)C2)n1 [Compound 14, 6-[[3-(4,6-dimethylpyrimidin-2-yl)oxyazetidin-1-yl]methyl]-3-phenyl-7h-imidazo[1,5-a]pyrazin-8-one]	–	50
CC(c1cn2c(-c3ccccc3)ncc2c(=O)[nH]1)N1CC(Oc2cnccn2)C1 (stereo not shown) [Compound 15, 3-phenyl-6-[1-(3-pyrazin-2-yloxyazetidin-1-yl)ethyl]-7h-imidazo[1,5-a]pyrazin-8-one]	40	–
O=c1[nH]c(CN2CC(Oc3cccc(F)c3)C2)cn2c(-c3ccccc3)ncc12 [Compound 16, 6-[[3-(3-fluorophenoxy)azetidin-1-yl]methyl]-3-phenyl-7h-imidazo[1,5-a]pyrazin-8-one]	97	–
O=c1[nH]c(CN2CCC(Nc3ccccc3)C2)cn2c(-c3ccccc3)ncc12 (stereo not shown) [Compound 17, 6-[(3-anilinopyrrolidin-1-yl)methyl]-3-phenyl-7h-imidazo[1,5-a]pyrazin-8-one]	28	–
CC(c1cn2c(-c3ccccc3)ncc2c(=O)[nH]1)N1CC(c2ccccc2)C1 (stereo not shown) [Compound 18, 3-phenyl-6-[1-(3-phenylazetidin-1-yl)ethyl]-7h-imidazo[1,5-a]pyrazin-8-one]	–	54
O=c1[nH]c(CN2CC(c3ccc(F)cc3)C2)cn2c(-c3ccccc3)ncc12 [Compound 19, 6-[[3-(4-fluorophenyl)azetidin-1-yl]methyl]-3-phenyl-7h-imidazo[1,5-a]pyrazin-8-one]	–	69
COC1CN(C(C)c2cn3c(-c4ccccc4)ncc3c(=O)[nH]2)C1 (stereo not shown) [Compound 20, 6-[1-(3-methoxyazetidin-1-yl)ethyl]-3-phenyl-7h-imidazo[1,5-a]pyrazin-8-one]	17	–
O=c1[nH]c(CN2CC(Oc3ccccc3)C2)cn2c(-c3ccccc3)ncc12 [Compound 21, 6-[(3-phenoxyazetidin-1-yl)methyl]-3-phenyl-7h-imidazo[1,5-a]pyrazin-8-one]	8	–
COC1CN(C(c2ccccc2)c2cn3c(-c4ccccc4)ncc3c(=O)[nH]2)C1 (stereo not shown) [Compound 22, 6-[(3-methoxyazetidin-1-yl)-phenyl-methyl]-3-phenyl-7h-imidazo[1,5-a]pyrazin-8-one]	–	37
O=c1[nH]c(CN2CC(Oc3ccc(F)cc3)C2)cn2c(-c3ccccc3)ncc12 [Compound 23, 6-[[3-(4-fluorophenoxy)azetidin-1-yl]methyl]-3-phenyl-7h-imidazo[1,5-a]pyrazin-8-one]	16	–
